Experimental data reported in patent US12433872B2, “Treatment of Acanthamoeba or Balamuthia trophozoites and/or cysts” (GEORGIA STATE UNIVERSITY RESEARCH FOUNDATION, INC., priority 2018, dated 2025).
Where two headings read alike, the source gives them in different places.

Assays:
[1] = system: Balamuthia mandrillaris trophozoites; assay: Activity against Balamuthia mandrillaris trophozoites; format: cell-based; details: Balamuthia mandrillaris, read-out: Balamuthia mandrillaris IC50
Method: Balamuthia mandrillaris trophozoites were thawed and grown in 10 ml of BM-3 medium. […] After autoclaving, complete BM-3 media was produced by the addition of 10% fetal bovine serum and 125 μg of penicillin/streptomycin antibiotics. The table describes all of the compounds and the activity against Balamuthia trophozoites compared to the activity for select Acanthamoeba trophozoites shown in Table 5.

[2] = system: Acanthamoeba castellanii trophozoites; assay: Activity against Acanthamoeba castellanii trophozoites; format: cell-based
Method: Two Acanthamoeba species (Acanthamoeba castellanii—ATCC50370 and Acanthamoeba culbertsoni—ATCC30171) were bought from the American Type Culture Collection (ATCC) and one species (Acanthamoeba healyi) was donated from the Centers for Disease Control and Prevention (CDC) for our experimentations. Trophozoites were thawed and grown in 10 mL of a nutrient rich Peptose-Glucose (PG) media. The PG media composition is 83.26 mM Glucose (15 g/L), Protease Peptone (15 g/L, yeast extract is manufactured under controlled conditions to retain its vitamin content and other nutritive values such as free amino acids, no other composition information given), 2.2 mM KH2PO4 (300 mg/L), 2.97 μM Thiamine (1 mg/L), 99.86 μM L-methionine (14.9 mg/L), 4.6 μM Vitamin B12 (83.3 μl of 0.1 mg/mL stock/L) and 68 μM Biotin (83.3 μl of 0.2 mg/mL stock/L). […] One mL/L of the salt solution was added to the media stock prior to autoclaving. All reagents were purchased from Sigma Aldrich except the Glucose which was purchased from Alfa Aesar. The cell pellet was resuspended in a final volume of 10 mL of PG media, cultured in 75 cm^2 coming tissue culture flasks and incubated at 27° C. PG was supplemented with 125 μg of penicillin/streptomycin. Sub-culturing occurred twice per week to allow the continued growth and development of the Acanthamoeba trophozoites. […]

[3] = trophozoites, n = 2, Table 6, read-out: Acanthamoeba castellanii IC50
[4] = read-out: Acanthamoeba castellanii IC50

| Structure (SMILES) | IC50 ([1]; trophozoites, n = 2) [nM] | IC50 [2, 3] [nM] | IC50 [1] [nM] | IC50 [2, 4] [nM] |
| --- | --- | --- | --- | --- |
| CC(C)NC(=N)c1ccc2nc(-c3ccc(Oc4ccc(-c5nc6ccc(C(=N)NC(C)C)cc6[nH]5)cc4)cc3)[nH]c2c1 [Compound AZ] | 40 | 550 | – | – |
| N=C(N)c1ccc(-c2ccc(-c3nc4ccc(C(=N)N)cc4[nH]3)cc2)cc1 [Compound AX] | – | – | 350 | 6050 |
| COc1cc(-c2nc3ccc(C(=N)NC(C)C)cc3[nH]2)ccc1Oc1ccc(-c2nc3ccc(C(=N)NC(C)C)cc3[nH]2)cc1C#N [Compound U, 2-(3-Cyano-4-(4-(6-(N-isopropylcarbamimidoyl)-1H-benzo[d]imidazol-2-yl)-2-methoxyphenoxy)phenyl)-N-isopropyl-1H-benzo[d]imidazole-6-carboximidamide] | 150 | 1440 | – | – |
| CC(C)NC(=N)c1ccc2nc(-c3ccc(Oc4ccc(-c5nc6ccc(C(=N)NC(C)C)cc6[nH]5)c(C(F)(F)F)c4)cc3)[nH]c2c1 [Compound AH] | – | – | 90 | 1890 |
| CN(C)CCNC(=O)c1ccc(-c2nc3ccc(-c4nc5ccc(C(=N)N)cc5[nH]4)cc3[nH]2)cc1 [Compound AK, 4-(6-carbamimidoyl-1H,3′H-[2,5′-bibenzo[d]imidazol]-2′-yl)-N-(2-(dimethylamino)ethyl)benzamide] | 80 | 28800 | – | – |
| CC(C)NC(=N)c1ccc2nc(-c3ccc(Oc4ccc(-c5nc6ccc(C(=N)NC(C)C)cc6[nH]5)cc4C#N)cc3)[nH]c2c1 [V, 2-(3-Cyano-4-(4-(6-(N-isopropylcarbamimidoyl)-1H-benzo[d]imidazol-2-yl)phenoxy)phenyl)-N-isopropyl-1H-benzo[d]imidazole-6-carboximidamide] | 70 | 1030 | – | – |
| CC(C)NC(=N)c1ccc2nc(-c3ccc(Oc4ccc(-c5nc6ccc(C(=N)NC(C)C)cc6[nH]5)cc4C#N)c(F)c3)[nH]c2c1 [X, 2-(3-Cyano-4-(2-fluoro-4-(6-(N-isopropylcarbamimidoyl)-1H-benzo[d]imidazol-2-yl)phenoxy)phenyl)-N-isopropyl-1H-benzo[d]imidazole-6-carboximidamide] | 100 | 620 | – | – |
| COc1cc(Oc2ccc(-c3nc4ccc(C(=N)NC(C)C)cc4[nH]3)cc2C#N)ccc1-c1nc2ccc(C(=N)NC(C)C)cc2[nH]1 [Z, 2-(3-Cyano-4-(4-(6-(N-isopropylcarbamimidoyl)-1H-benzo[d]imidazol-2-yl)-3-methoxyphenoxy)phenyl)-N-isopropyl-1H-benzo[d]imidazole-6-carboximidamide] | 280 | 1870 | – | – |
| CC(C)NC(=N)c1ccc2nc(-c3ccc(Oc4c(F)cc(-c5nc6ccc(C(=N)NC(C)C)cc6[nH]5)cc4F)cc3)[nH]c2c1 [W, 2-(3,5-Difluoro-4-(4-(6-(N-isopropylcarbamimidoyl)-1H-benzo[d]imidazol-2-yl)phenoxy)phenyl)-N-isopropyl-1H-benzo[d]imidazole-6-carboximidamide] | 290 | 33300 | – | – |
| CC(C)NC(=N)c1ccc2nc(-c3ccc(Oc4ccc(-c5nc6ccc(C(=N)NC(C)C)cc6[nH]5)c(F)c4)c(C#N)c3)[nH]c2c1 [Y, 2-(3-Cyano-4-(3-fluoro-4-(6-(N-isopropylcarbamimidoyl)-1H-benzo[d]imidazol-2-yl)phenoxy)phenyl)-N-isopropyl-1H-benzo[d]imidazole-6-carboximidamide] | 90 | 950 | – | – |
| COc1ccc(-c2nc3ccc(-c4nc5ccc(C6=NCCCCN6)cc5[nH]4)cc3[nH]2)cc1O [AM, 2-methoxy-5-(6-(4,5,6,7-tetrahydro-1H-1,3-diazepin-2-yl)-1H,3′H-[2,5′-bibenzo[d]imidazol]-2′-yl)phenol] | 130 | 1930 | – | – |
| CC(C)NC(=N)c1ccc2nc(-c3ccc(Oc4ccc(-c5nc6ccc(C(=N)NC(C)C)cc6[nH]5)c(Cl)c4)c(Cl)c3)[nH]c2c1 [AD, 2-(2-Chloro-4-(2-chloro-4-(6-(N-isopropylcarbamimidoyl)-1H-benzo[d]imidazol-2-yl)phenoxy)phenyl)-N-isopropyl-1H-benzo[d]imidazole-6-carboximidamide] | 130 | 830 | – | – |
| CN(C)CCOc1cccc(-c2nc3ccc(-c4nc5ccc(C(=N)N)cc5[nH]4)cc3[nH]2)c1 [AQ, 2′-(3-(2-(dimethylamino)ethoxy)phenyl)-1H,3′H-[2,5-bibenzo[d]imidazole]-6-carboximidamide] | – | – | 420 | 13200 |
| COc1ccc(-c2nc3ccc(-c4nc5ccc(C(=N)C6=NCCCN6)cc5[nH]4)cc3[nH]2)cc1O [AN, 5-(6-(imino(1,4,5,6-tetrahydropyrimidin-2-yl)methyl)-1H,3′H-[2,5′-bibenzo[d]imidazol]-2′-yl)-2-methoxyphenol] | 230 | 480 | – | – |
| CC(C)NC(=N)c1ccc2nc(-c3ccc(Oc4ccc(-c5nc6ccc(C(=N)NC(C)C)cc6[nH]5)cc4I)cc3)[nH]c2c1 [AE, 2-(3-Iodo-4-(4-(6-(N-isopropylcarbamimidoyl)-1H-benzo[d]imidazol-2-yl)phenoxy)phenyl)-N-isopropyl-1H-benzo[d]imidazole-6-carboximidamide] | 380 | 1090 | – | – |
| CC(C)NC(=N)c1ccc2nc(-c3ccc(CCc4ccc(-c5nc6ccc(C(=N)NC(C)C)cc6[nH]5)cc4)cc3)[nH]c2c1 [BC] | 250 | > 67800 | – | – |
| CC(C)NC(=N)c1ccc2nc(-c3ccc(Nc4ccc(-c5nc6ccc(C(=N)NC(C)C)cc6[nH]5)cc4)cc3)[nH]c2c1 [Compound AY] | 40 | 5990 | – | – |
| CC(C)NC(=N)c1ccc2nc(-c3ccc(N(C)c4ccc(-c5nc6ccc(C(=N)NC(C)C)cc6[nH]5)cc4)cc3)[nH]c2c1 [BA] | 50 | 1700 | – | – |
| COc1ccc(-c2nc3ccc(-c4nc5ccc(C6=NCC(C)(C)CN6)cc5[nH]4)cc3[nH]2)cc1O [Compound AR, 5-(6-(5,5-dimethyl-1,4,5,6-tetrahydropyrimidin-2-yl)-1H,3′H-[2,5′-bibenzo[d]imidazol]-2′-yl)-2-methoxyphenol] | 660 | 2010 | – | – |
| CC(C)NC(=N)c1ccc2nc(-c3ccc(Oc4ccc(-c5nc6ccc(C(=N)NC(C)C)cc6[nH]5)c(Cl)c4)cc3)[nH]c2c1 [Compound AG] | 50 | 310 | – | – |
| N=C(N)c1ccc(OCc2ccc(-c3ccc(C(=N)N)cc3)cc2)cc1 [Compound AU] | 360 | 2440 | – | – |
| CC(C)NC(=N)c1ccc2nc(-c3ccc(Oc4ccc(-c5nc6ccc(C(=N)NC(C)C)cc6[nH]5)c(Cl)c4)c(C#N)c3)[nH]c2c1 [AA, 2-(2-Chloro-4-(2-cyano-4-(6-(N-isopropylcarbamimidoyl)-1H-benzo[d]imidazol-2-yl)phenoxy)phenyl)-N-isopropyl-1H-benzo[d]imidazole-6-carboximidamide] | 60 | 730 | – | – |
| CC1CCN(C(=N)c2ccc3nc(-c4ccc(Oc5ccc(-c6nc7ccc(C(=N)N8CCC(C)CC8)cc7[nH]6)cc5)cc4)[nH]c3c2)CC1 [BF] | 410 | 3870 | – | – |
| N=C(NC1CCC1)c1ccc2nc(-c3ccc4nc(-c5cccc(O)c5)[nH]c4c3)[nH]c2c1 [Compound AT] | 400 | 1250 | – | – |
